Test results taken from article PMC10615177 (ACS infectious diseases, 2023).
In brackets after ≈: the same amount, converted by molar mass. Where two headings read alike, the source gives them in different places.

Tests used:
E. coli = E. coli growth inhibition; type: cell-based, Escherichia coli
[1] = test system: L. donovani promastigotes; test: L. donovani promastigote growth inhibition; type: cell-based, Leishmania donovani; conditions: read-out: L. donovani IC50
[2] = test system: T. cruzi Dm28c intracellular amastigotes; test: T. cruzi intracellular amastigote inhibition; type: cell-based, Trypanosoma cruzi; conditions: read-out: T. cruzi IC50 (PAR)
[3] = test system: T. cruzi Dm28c epimastigotes; test: T. cruzi epimastigote growth inhibition; type: cell-based, Trypanosoma cruzi; conditions: read-out: T. cruzi IC50 (EPI)
[4] = DSC of DSPG bilayers with inhibitor; type: physicochemical
[5] = DSC of DMPC bilayers with inhibitor; type: physicochemical
[6] = test system: M. abscessus smooth variant; test: microbe, parasite or virus in culture; type: cell-based
Bacillus subtilis = test: B. subtilis growth inhibition; type: cell-based; conditions: read-out: Bs IC50
U2OS host cells = test: U2OS host cell growth inhibition; conditions: read-out: T. cruzi CC50 (U20S)
[7] = target: M. tuberculosis MmpL3 (MtMmpL3) (Mycobacterium tuberculosis, UniProt P9WJV5); test: Surface plasmon resonance binding to MmpL3
Chain of M. tuberculosis MmpL3 (MtMmpL3) (P9WJV5 whole entry): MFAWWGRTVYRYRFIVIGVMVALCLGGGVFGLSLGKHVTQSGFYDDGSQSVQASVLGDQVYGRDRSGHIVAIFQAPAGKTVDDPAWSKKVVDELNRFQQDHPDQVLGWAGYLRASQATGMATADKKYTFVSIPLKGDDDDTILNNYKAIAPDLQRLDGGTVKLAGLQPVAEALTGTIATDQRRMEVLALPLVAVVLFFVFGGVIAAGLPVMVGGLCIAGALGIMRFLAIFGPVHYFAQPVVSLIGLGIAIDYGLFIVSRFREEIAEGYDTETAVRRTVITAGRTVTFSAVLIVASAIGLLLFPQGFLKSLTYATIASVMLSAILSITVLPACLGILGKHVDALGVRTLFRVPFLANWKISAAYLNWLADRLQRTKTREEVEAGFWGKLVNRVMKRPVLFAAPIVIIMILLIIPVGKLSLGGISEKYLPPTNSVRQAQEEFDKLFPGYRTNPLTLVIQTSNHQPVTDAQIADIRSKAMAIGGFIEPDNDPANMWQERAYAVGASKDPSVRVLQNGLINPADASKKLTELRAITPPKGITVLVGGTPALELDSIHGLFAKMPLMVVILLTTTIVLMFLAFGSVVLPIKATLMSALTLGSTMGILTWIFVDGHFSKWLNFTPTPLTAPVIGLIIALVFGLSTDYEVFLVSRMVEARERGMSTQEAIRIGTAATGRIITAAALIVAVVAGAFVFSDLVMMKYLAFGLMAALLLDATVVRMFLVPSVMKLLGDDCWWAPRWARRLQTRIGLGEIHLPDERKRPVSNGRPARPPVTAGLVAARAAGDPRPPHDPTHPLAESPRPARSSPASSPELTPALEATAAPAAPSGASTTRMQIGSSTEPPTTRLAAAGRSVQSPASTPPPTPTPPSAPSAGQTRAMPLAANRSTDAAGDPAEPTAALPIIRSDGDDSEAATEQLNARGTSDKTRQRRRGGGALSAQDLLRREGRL

M. tuberculosis H37Rv = M. tuberculosis H37Rv growth inhibition; type: cell-based, Mycobacterium tuberculosis; conditions: for MIC: Mycobacterium tuberculosis, H37RV, read-out: Mtb H37Rv MIC
[8] = test system: T. brucei bloodstream forms; test: T. brucei bloodstream form growth inhibition; type: cell-based, Trypanosoma brucei; conditions: read-out: T. brucei IC50
[9] = test system: M. abscessus rough variant; test: microbe, parasite or virus in culture; type: cell-based
M. smegmatis = M. smegmatis cell growth inhibition; type: cell-based, Mycobacterium smegmatis
M. tuberculosis Erdman = M. tuberculosis Erdman growth inhibition; type: cell-based, Mycobacterium tuberculosis; conditions: for MIC: Mycobacterium tuberculosis, ERDMAN, read-out: Mtb Erdman MIC
M. tuberculosis HN878 = M. tuberculosis HN878 growth inhibition; type: cell-based, Mycobacterium tuberculosis; conditions: for MIC: HN878, read-out: Mtb HN878 MIC
[10] = test system: L. mexicana promastigotes; test: L. mexicana promastigote growth inhibition; type: cell-based, Leishmania mexicana; conditions: Leishmania mexicana, read-out: L. mexicana IC50, promastigotes
[11] = test system: Plasmodium falciparum asexual blood stages; test: P. falciparum asexual blood stage; type: cell-based; conditions: Plasmodium falciparum, read-out: PfABS IC50 (μM ± S.E.), asexual blood stages
in vitro [12] = conditions: human
in vitro [13] = conditions: human; remark: listed apart in the source
[14] = 10 wt % inhibitor, PBS pH 7.4, heating
[15] = read-out: KD, 1:1 model, 1:1 binding model, from ratio of rate constants
[16] = read-out: KD, 2-state, two-state model, from rate constants
[17] = read-out: Ms IC50, M. smegmatis
[18] = Mycolicibacterium smegmatis, read-out: Ms IC50, M. smegmatis
[19] = Mycobacterium tuberculosis, HN878, read-out: Mtb HN878 IC50, dose-response curves
[20] = KD, 1:1 model, 1:1 binding model, from ratio of rate constants
[21] = KD, 2-state, two-state model, from rate constants

Question: With CCCCCCC1(NCCNCC=C(C)CCC=C(C)C)C2CC3CC(C2)CC1C3 (stereo not drawn) [Compound 8f, N-(3,7-dimethylocta-2,6-dien-1-yl)-N´-(2-hexyladamantan-2-yl)ethane-1,2-diamine] as the compound, how does the IC50 (E. coli; read-out: Ec IC50) read?
Answer: 9.2 µM

Question: And the IC50 ([1]; promastigotes)?
Answer: 8.8 ± 0.4 µM

Question: What about the IC50 ([2]; intracellular amastigotes in U2OS host cells) of the same compound?
Answer: 1.3 ± 0.07 µM

Question: And the IC50 ([3]; epimastigotes)?
Answer: 8.2 ± 0.4 µM

Question: And the “Tm (main transition)” value [4, 14]?
Answer: 49.1 °C

Question: What about the ΔH [4, 14] of the same compound?
Answer: 8.75 kcal/mol

Question: What about the ΔT1/2 [4, 14] of the same compound?
Answer: 1.7 °C

Question: And the “Broadening of main transition peak ΔΤ1/2 compared to pure DSPG” value ([4]; heating)?
Answer: 0.2–1.6 °C

Question: And the “Decrease of Tm compared to DSPG alone” value ([4]; heating)?
Answer: ~ 5 °C

Question: What about the “Tm (main transition)” value [5, 14] of the same compound?
Answer: 13.8 °C

Question: What about the ΔH [5, 14] of the same compound?
Answer: 5.88 kcal/mol

Question: What about the ΔT1/2 [5, 14] of the same compound?
Answer: 5.1 °C

Question: What about the “Broadening of main transition peak ΔΤ1/2 compared to pure DMPC” value ([5]; heating) of the same compound?
Answer: 4.4 °C

Question: What about the “Decrease of Tm compared to DMPC without inhibitor” value ([5]; heating) of the same compound?
Answer: ~9.7 °C

Question: What about the “Ma(S) MIC” value [6] of the same compound?
Answer: 12 µM

Question: What about the IC50 (Bacillus subtilis) of the same compound?
Answer: 1 µM

Question: And the CC50 (U2OS host cells)?
Answer: 4.1 ± 1 µM

Question: What about the koff ([7]; 1:1 Langmuir binding model) of the same compound?
Answer: 0.2964 s⁻¹

Question: What about the Kd [7, 15] of the same compound?
Answer: 67 µM

Question: And the Kd [7, 16]?
Answer: 81 µM

Question: What about the ka1 ([7]; two-state model) of the same compound?
Answer: 4642 M⁻¹ s⁻¹

Question: And the ka2 ([7]; two-state model)?
Answer: 0.008637 s⁻¹

Question: And the kd1 ([7]; two-state model)?
Answer: 0.4552 s⁻¹

Question: What about the kd2 ([7]; two-state model) of the same compound?
Answer: 0.03992 s⁻¹

Question: And the “Mtb H37Rv MIC” value (M. tuberculosis H37Rv)?
Answer: 12 µM

Question: And the IC50 ([8]; bloodstream forms)?
Answer: 0.98 ± 0.09 µM

Question: And the “Ma(R) MIC” value [9]?
Answer: 12 µM

Question: And the IC50 (M. smegmatis; [17])?
Answer: 4.7 µM

Question: What about the “Mtb Erdman MIC” value (M. tuberculosis Erdman) of the same compound?
Answer: 12 µM

Question: And the IC50 (M. tuberculosis HN878; read-out: Mtb HN878 IC50, dose-response curves)?
Answer: 3.4 ± 0.6 µM

Question: What about the “Mtb HN878 MIC” value (M. tuberculosis HN878; visual inspection) of the same compound?
Answer: 3 µM

Question: With CC(C)=CCCC(C)=CCNCCNC1(c2ncc(-c3ccccc3)s2)C2CC3CC(C2)CC1C3 (stereo not drawn) [Compound 8i, N-(3,7-dimethylocta-2,6-dien-1-yl)-N´-(2-(5-phenylthiazol-2-yl)adamantan-2-yl)ethane-1,2-diamine] as the compound, how does the “Ma(S) MIC” value [6] read?
Answer: 21.5 µM

Question: What about the koff ([7]; 1:1 Langmuir binding model) of the same compound?
Answer: 0.4902 s⁻¹

Question: What about the Kd [7, 15] of the same compound?
Answer: 87 µM

Question: What about the Kd [7, 16] of the same compound?
Answer: 91 µM

Question: What about the ka1 ([7]; two-state model) of the same compound?
Answer: 3946 M⁻¹ s⁻¹

Question: And the ka2 ([7]; two-state model)?
Answer: 0.006253 s⁻¹

Question: And the kd1 ([7]; two-state model)?
Answer: 0.434 s⁻¹

Question: What about the kd2 ([7]; two-state model) of the same compound?
Answer: 0.03057 s⁻¹

Question: What about the “Ma(R) MIC” value [9] of the same compound?
Answer: 21.5 µM

Question: What about the IC50 (M. smegmatis; [17]) of the same compound?
Answer: 21 µM

Question: Which “Ec IC50” value (E. coli) does the source give for CC(C)=CCCC(C)=CCNCC(=O)NC(C)(C)C12CC3CC(CC(C3)C1)C2 [Compound 11, N-(2-(adamantan-1-yl)propan-2-yl)-2-((3,7-dimethylocta-2,6-dien-1-yl)amino)acetamide] here?
Answer: No inhibition

Question: And the IC50 ([1]; Leishmania donovani)?
Answer: 5 ± 0.6 µM

Question: And the IC50 ([2]; Trypanosoma cruzi, U2OS)?
Answer: 4.4 ± 0.3 µM

Question: And the IC50 [10]?
Answer: 5.2 ± 0.2 µM

Question: And the IC50 ([3]; Trypanosoma cruzi)?
Answer: 16 ± 4 µM

Question: And the IC50 [11]?
Answer: 7.63 ± 1.13 µM

Question: What about the CC50 (in vitro [12]) of the same compound?
Answer: 6.9 ± 0.1 µM

Question: And the viability at 20 µM (in vitro [13])?
Answer: 100%

Question: And the MIC (M. tuberculosis H37Rv)?
Answer: 19 µM (≈ 7.35 µg/mL)

Question: And the IC50 ([8]; Trypanosoma brucei)?
Answer: 6.2 ± 0.2 µM

Question: And the IC50 (M. smegmatis; [18])?
Answer: 44 ± 4 µM

Question: What about the MIC (M. tuberculosis Erdman) of the same compound?
Answer: 19 µM (≈ 7.35 µg/mL)

Question: What about the IC50 (M. tuberculosis HN878; [19]) of the same compound?
Answer: 13 ± 2 µM

Question: What about the MIC (M. tuberculosis HN878; Mycobacterium tuberculosis) of the same compound?
Answer: 12.5 µM (≈ 4.83 µg/mL)

Question: What does the source list for CC(C)=CCCC(C)=CCNC(=O)CNC1(C)C2CC3CC(C2)CC1C3 (stereo not drawn) [Compound 14b, N-(3,7-dimethylocta-2,6-dien-1-yl)-2-((2-methyl-2-adamantanyl)amino)acetamide]?
Answer: Ec IC50 (E. coli): No inhibition; IC50 ([1]; Leishmania donovani): 11 ± 0.9 µM; IC50 ([2]; Trypanosoma cruzi, U2OS): 2.3 ± 0.2 µM; IC50 [10]: 2.4 ± 0.7 µM; IC50 ([3]; Trypanosoma cruzi): 18 ± 4 µM; IC50 [11]: 6.47 ± 0.65 µM; CC50 (in vitro [12]): 7.2 ± 0.9 µM; viability at 20 µM (in vitro [13]): 94%; koff [7]: 0.751 s⁻¹; kon [7]: 1760 M⁻¹ s⁻¹; Kd [7, 20]: 426 µM; Kd [7, 21]: 531 µM; ka1 ([7]; two-state model): 1917 M⁻¹ s⁻¹; ka2 ([7]; two-state model): 0.009268 s⁻¹; kd1 ([7]; two-state model): 1.363 s⁻¹; kd2 ([7]; two-state model): 0.02741 s⁻¹; MIC (M. tuberculosis H37Rv): 30 µM (≈ 10.8 µg/mL); IC50 ([8]; Trypanosoma brucei): 6.6 ± 0.03 µM; IC50 (M. smegmatis; [18]): 9 µM; MIC (M. tuberculosis Erdman): 20 µM (≈ 7.17 µg/mL); IC50 (M. tuberculosis HN878; [19]): 4.9 ± 0.1 µM; MIC (M. tuberculosis HN878; Mycobacterium tuberculosis): 6.25 µM (≈ 2.24 µg/mL)

Question: For CCCC1(NCC(=O)NCC=C(C)CCC=C(C)C)C2CC3CC(C2)CC1C3 (stereo not drawn) [Compound 14d, N-(3,7-dimethylocta-2,6-dien-1-yl)-2-((2-propyladamantan-2-yl)amino)acetamide], which “Ec IC50” value (E. coli) is on record?
Answer: No inhibition

Question: What about the IC50 ([1]; Leishmania donovani) of the same compound?
Answer: 8.4 ± 2 µM

Question: And the IC50 ([2]; Trypanosoma cruzi, U2OS)?
Answer: 2.8 ± 0.3 µM

Question: And the IC50 [10]?
Answer: 0.73 ± 0.2 µM

Question: And the IC50 ([3]; Trypanosoma cruzi)?
Answer: 14 ± 5 µM

Question: What about the IC50 [11] of the same compound?
Answer: 5.27 ± 0.41 µM

Question: And the CC50 (in vitro [12])?
Answer: 9.1 ± 0.4 µM

Question: And the viability at 20 µM (in vitro [13])?
Answer: 100%

Question: What about the koff [7] of the same compound?
Answer: 0.754 s⁻¹

Question: And the kon [7]?
Answer: 3000 M⁻¹ s⁻¹

Question: What about the Kd [7, 20] of the same compound?
Answer: 252 µM

Question: And the Kd [7, 21]?
Answer: 267 µM

Question: And the ka1 ([7]; two-state model)?
Answer: 3277 M⁻¹ s⁻¹

Question: And the ka2 ([7]; two-state model)?
Answer: 0.005907 s⁻¹

Question: What about the kd1 ([7]; two-state model) of the same compound?
Answer: 1.04 s⁻¹

Question: What about the kd2 ([7]; two-state model) of the same compound?
Answer: 0.03103 s⁻¹

Question: What about the MIC (M. tuberculosis H37Rv) of the same compound?
Answer: 32 µM (≈ 12.4 µg/mL)

Question: And the IC50 ([8]; Trypanosoma brucei)?
Answer: 2.3 ± 0.1 µM

Question: And the IC50 (M. smegmatis; [18])?
Answer: 49 ± 5 µM

Question: And the MIC (M. tuberculosis Erdman)?
Answer: 32 µM (≈ 12.4 µg/mL)

Question: And the IC50 (M. tuberculosis HN878; [19])?
Answer: > 25 µM

Question: And the MIC (M. tuberculosis HN878; Mycobacterium tuberculosis)?
Answer: 25 µM (≈ 9.67 µg/mL)

Question: What does the source list for CC(C)=CCCC(C)=CCNC(=O)CNC(C)(C)C12CC3CC(CC(C3)C1)C2 [Compound 15, 2-((2-(Adamantan-1-yl)propan-2-yl)amino)-N-(3,7-dimethylocta-2,6-dien-1-yl)acetamide]?
Answer: Ec IC50 (E. coli): No inhibition; IC50 ([1]; Leishmania donovani): 12 ± 8 µM; IC50 ([2]; Trypanosoma cruzi, U2OS): 2.6 ± 0.1 µM; IC50 [10]: 5 ± 0.1 µM; IC50 ([3]; Trypanosoma cruzi): 15 ± 3 µM; IC50 [11]: 5.44 ± 0.32 µM; CC50 (in vitro [12]): 7.1 ± 0.5 µM; viability at 2 µM (in vitro [13]): 91%; viability at 20 µM (in vitro [13]): 76%; MIC (M. tuberculosis H37Rv): 38 µM (≈ 14.7 µg/mL); IC50 ([8]; Trypanosoma brucei): 5.9 ± 0.1 µM; IC50 (M. smegmatis; [18]): 31 ± 3 µM; MIC (M. tuberculosis Erdman): 38 µM (≈ 14.7 µg/mL); IC50 (M. tuberculosis HN878; [19]): 17 ± 6 µM; MIC (M. tuberculosis HN878; Mycobacterium tuberculosis): 12.5 µM (≈ 4.83 µg/mL)
